Data: patent US7989446B2, “4-amino 5-cyanopyrimidine derivatives” (Otsuka Pharmaceutical Co., Ltd., priority 2004, dated 2011)
pEC50: −log10 of the molar value.

How the values were obtained:
[1] = molecular target: T1, A1 receptor (Rattus norvegicus, UniProt P25099); test: Adenosine A1 agonistic action ([35S]GTPγS binding, rat cerebral cortex cell membrane); assay type: biochemical, male Wistar rats; settings: percentage to 100% of CPA 1 μM
T1 construct: cerebral cortex of male Wistar rats (Charles River Japan, Inc) was extirpated; from tissue; host or cells: cerebral cortex of male Wistar rats, cell membrane preparation
T1 sequence (P25099 1-326): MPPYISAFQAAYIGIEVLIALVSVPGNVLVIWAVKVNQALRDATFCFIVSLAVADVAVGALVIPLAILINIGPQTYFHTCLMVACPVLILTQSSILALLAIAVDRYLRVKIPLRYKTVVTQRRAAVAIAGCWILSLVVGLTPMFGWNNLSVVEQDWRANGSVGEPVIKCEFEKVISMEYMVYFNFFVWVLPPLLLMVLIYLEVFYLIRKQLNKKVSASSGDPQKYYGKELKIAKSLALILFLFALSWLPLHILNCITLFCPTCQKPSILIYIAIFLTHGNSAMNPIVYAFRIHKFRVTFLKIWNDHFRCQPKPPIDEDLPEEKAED
Procedure: (2) Adenosine A1 Agonistic Action
The test was carried out as mentioned below with reference to the method disclosed in the literature (Shryock J. C. et al., Molecular Pharmacology, (1998) 53, 886-893; Ito H. et al., European Journal of Pharmacology, (1999) 365, 309-315). That is, cerebral cortex of male Wistar rats (Charles River Japan, Inc) was extirpated, thereto Tris buffer (50 mM Tris-HCl: pH 7.4) was added, it was homogenized, and then centrifuged (1000×g, 10 min). The supernatant was taken, and centrifuged (20,000×g, 20 min). After removing off the supernatant, the precipitate was suspended in Tris buffer, and recentrifuged (20,000×g, 20 min). After removing off the supernatant, the precipitate was suspended in Tris buffer including 2 units/mL ADA (adenosine deaminase) and reserved at −80° C. until used as a liquid preparation of cell membrane for the following tests.
The above liquid preparation of cell membrane in an amount corresponding to 10 μg of cell membrane was added to Tris-buffer comprising 5 mM of MgCl2, 1 mM of EDTA, 1 mM of dithiothreitol, 100 mM of NaCl, 0.01 mM of GDP (guanosine diphosphate), 5 mg/mL of BSA and 2 units/mL of ADA and the mixture was incubated at 25° C. for 30 minutes. Additionally, [^35S]GTPγS (Guanosine 5′-[γ-thio]triphosphate) (the final concentration: 0.4 nM) and the test compound of the given concentration (which was calculated based on the final concentration of the test compound) were added to the mixture and the resulting mixture was incubated at 25° C. for 45 minutes. The reaction mixture was filtrated through a glass fiber filter (unifilter-96 GF/B, Perkin Elmer Life Sciences) to quench reaction. The filter was washed 5 times with ice-cooled Tris-buffer including 5 mM MgCl2. The radioactivity of the filter was measured with Top count NXT(Perkin Elmer Life Sciences). The nonspecific binding was shown as the binding activity of [^35S]GTPγS in the presence of 0.01 mM GTPγS.
The activity (%, A1 agonistic action) of each test compound was calculated on the basis of the test result ([^35S]GTPγS binding activity) derived with 1 μM of CPA (N^6-Cyclopentyladenosine, Sigma, code C-8031) in control which was counted as 100%.

[2] = system: Intraocular Pressure in Rabbit; test: Measuring test for intraocular pressure in rabbit; assay type: in vivo, Female New Zealand white rabbits; settings: rabbit, instillation, difference from pre-instillation, mean±standard error
Method in brief: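 Female New Zealand white rabbits received 50 μL eye drops of compound in 10 mM phosphate buffer pH 7.5 (suspension if insoluble) in one eye, vehicle as control. IOP measured by pneumatonometer under topical oxybuprocaine before and 0.5–6 h after dosing; reported as ΔIOP from pre-instillation, mmHg, mean±SE.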

[3] = molecular target: T2, adenosine A2a receptor (Human) (Homo sapiens, UniProt P29274); test: c-AMP generating action in cell expressing adenosine A2a receptor; assay type: cell-based; settings: HEK293 cell expressing human A2a; 100% = c-AMP caused by 1 μM CGS-21680; read-out: A2a Agonistic Action (EC50)
T2 construct: host or cells: HEK293
T2 sequence (P29274 whole entry): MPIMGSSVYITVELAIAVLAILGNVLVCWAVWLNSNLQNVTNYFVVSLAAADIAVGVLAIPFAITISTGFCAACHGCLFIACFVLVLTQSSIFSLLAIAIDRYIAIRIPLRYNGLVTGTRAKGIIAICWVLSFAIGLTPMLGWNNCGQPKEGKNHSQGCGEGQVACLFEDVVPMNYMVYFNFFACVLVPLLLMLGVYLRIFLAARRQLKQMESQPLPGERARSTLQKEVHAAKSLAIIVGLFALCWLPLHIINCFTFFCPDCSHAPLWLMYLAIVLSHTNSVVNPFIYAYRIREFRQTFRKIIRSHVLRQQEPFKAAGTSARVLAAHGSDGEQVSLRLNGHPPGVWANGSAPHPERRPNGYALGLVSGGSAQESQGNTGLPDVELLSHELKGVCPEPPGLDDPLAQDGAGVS
Method in brief: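 HEK293 cells with human A2a receptor were preincubated 30 min at 37 °C with 0.1 mM IBMX and 2 U/mL adenosine deaminase. Compound was then added for 30 min and cAMP read by EIA. EC50 = concentration giving 50% of the cAMP produced by 1 μM CGS-21680.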

[4] = 0.03% ophthalmic solution, 0.5 hr after instillation
[5] = 0.03% ophthalmic solution, 1 hr after instillation
[6] = 0.03% ophthalmic solution, 2 hr after instillation
[7] = 0.03% ophthalmic solution, 3 hr after instillation
[8] = 0.03% ophthalmic solution, 4 hr after instillation
[9] = 0.03% ophthalmic solution, 6 hr after instillation

Row | pEC50 [3] | A1 Agonistic Action (%) ([1]; test compound 10 nM) | A1 Agonistic Action (%) ([1]; test compound 100 nM) | A1 Agonistic Action (%) ([1]; test compound 1 μM) | SMILES | A1 Agonistic Action (%) ([1]; test compound 10 nM, hydrochloride) | A1 Agonistic Action (%) ([1]; test compound 100 nM, hydrochloride) | A1 Agonistic Action (%) ([1]; test compound 1 μM, hydrochloride) | ΔIOP (mmHg) [2, 4] [mmHg] | ΔIOP (mmHg) [2, 5] [mmHg] | ΔIOP (mmHg) [2, 6] [mmHg] | ΔIOP (mmHg) [2, 7] [mmHg] | ΔIOP (mmHg) [2, 8] [mmHg] | ΔIOP (mmHg) [2, 9] [mmHg] | ΔIOP (mmHg) ([2]; 0.01% ophthalmic solution, 0.5 hr after instillation) | ΔIOP (mmHg) ([2]; 0.01% ophthalmic solution, 1 hr after instillation) | ΔIOP (mmHg) ([2]; 0.01% ophthalmic solution, 2 hr after instillation) | ΔIOP (mmHg) ([2]; 0.01% ophthalmic solution, 3 hr after instillation) | ΔIOP (mmHg) ([2]; 0.01% ophthalmic solution, 4 hr after instillation) | ΔIOP (mmHg) ([2]; 0.01% ophthalmic solution, 6 hr after instillation)
1 | 8.12 | 0 | 14 | 46 | CC(=O)Nc1ccc(-c2nc(SCc3cccc(CCC(=O)N4CCN(CCN(C(C)C)C(C)C)CC4)n3)nc(N)c2C#N)cc1.Cl [Example 76, N-{4-[6-amino-5-cyano-2-(6-{3-[4-(2-diisopropylaminoethyl)piperazin-1-yl]-3-oxopropyl}pyridin-2-ylmethylsulfanyl)pyrimidin-4-yl]phenyl}acetamide hydrochloride] | – | – | – | – | – | – | – | – | – | −3.7 ± 0.5 | −6.0 ± 0.8 | −5.7 ± 0.1 | −6.1 ± 0.3 | −5.2 ± 0.4 | −3.6 ± 0.7
2 | 8.29 | 8 | 30 | 39 | CC(=O)Nc1ccc(-c2nc(SCc3cccc(CCC(=O)N(C)CCN(C)C)n3)nc(N)c2C#N)cc1.Cl [Example 62, 3-{6-[4-(4-acetylaminophenyl)-6-amino-5-cyanopyrimidin-2-ylsulfanylmethyl]pyridin-2-yl}-N-(2-dimethylaminoethyl)-N-methylpropionamide hydrochloride] | – | – | – | −1.2 ± 0.7 | −4.7 ± 0.5 | −5.1 ± 0.3 | −4.9 ± 0.3 | −3.6 ± 0.3 | −1.0 ± 0.6 | – | – | – | – | – | –
3 | 8.02 | 2 | 18 | 40 | CC(=O)Nc1ccc(-c2nc(SCc3cccc(CCC(=O)N4CCN(CCN5CCCC5)CC4)n3)nc(N)c2C#N)cc1.Cl [Example 77, N-{4-[6-amino-5-cyano-2-(6-{3-oxo-3-[4-(2-pyrrolidin-1-ylethyl)piperazin-1-yl]propyl}pyridin-2-ylmethylsulfanyl)pyrimidin-4-yl]phenyl}acetamide hydrochloride] | – | – | – | −0.8 ± 0.5 | −5.0 ± 0.6 | −5.1 ± 0.4 | −4.4 ± 0.6 | −4.9 ± 0.7 | −3.1 ± 0.7 | – | – | – | – | – | –

Row | SMILES | pEC50 [3] | A1 Agonistic Action (%) ([1]; test compound 10 nM) | A1 Agonistic Action (%) ([1]; test compound 100 nM) | A1 Agonistic Action (%) ([1]; test compound 1 μM) | A1 Agonistic Action (%) ([1]; test compound 10 nM, hydrochloride) | A1 Agonistic Action (%) ([1]; test compound 100 nM, hydrochloride) | A1 Agonistic Action (%) ([1]; test compound 1 μM, hydrochloride) | ΔIOP (mmHg) [2, 4] [mmHg] | ΔIOP (mmHg) [2, 5] [mmHg] | ΔIOP (mmHg) [2, 6] [mmHg] | ΔIOP (mmHg) [2, 7] [mmHg] | ΔIOP (mmHg) [2, 8] [mmHg] | ΔIOP (mmHg) [2, 9] [mmHg] | ΔIOP (mmHg) ([2]; 0.01% ophthalmic solution, 0.5 hr after instillation) | ΔIOP (mmHg) ([2]; 0.01% ophthalmic solution, 1 hr after instillation) | ΔIOP (mmHg) ([2]; 0.01% ophthalmic solution, 2 hr after instillation) | ΔIOP (mmHg) ([2]; 0.01% ophthalmic solution, 3 hr after instillation) | ΔIOP (mmHg) ([2]; 0.01% ophthalmic solution, 4 hr after instillation) | ΔIOP (mmHg) ([2]; 0.01% ophthalmic solution, 6 hr after instillation)
4 | CCN(CC)CCN1CCN(C(=O)CCc2cccc(CSc3nc(N)c(C#N)c(-c4ccc(NC(C)=O)cc4)n3)n2)CC1.Cl [Example 79, N-{4-[6-amino-5-cyano-2-(6-{3-[4-(2-diethylaminoethyl)piperazin-1-yl]-3-oxopropyl}pyridin-2-ylmethylsulfanyl)pyrimidin-4-yl]phenyl}acetamide hydrochloride] | 8.08 | – | – | – | 0 | 12 | 45 | 0.3 ± 0.9 | −3.9 ± 0.5 | −5.4 ± 0.7 | −5.8 ± 0.8 | −4.8 ± 0.7 | −2.8 ± 1.0 | – | – | – | – | – | –
